Measurements taken from the supplement of paper PMC12463676, “Small-molecule dissolution of stress granules by redox modulation benefits ALS models” (Nature Chemical Biology, 2025).

Tests used:
[1] = compound: NC(=O)CCCCC1CCSS1 [lipoamide]; test: thermal stability z-score vs DMSO; higher = more thermally stabilized by treatment; conditions: HeLa, lipoamide concentration 100 µM
Procedure: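 Cellular thermal proteome profiling in HeLa cells. Cells were treated with 100 µM lipoamide for 1 h, with or without 1 mM arsenate for a further 1 h, then heated to ten temperatures (37-66.3 °C), and soluble protein was quantified by TMT mass spectrometry relative to 0.1% DMSO controls. The thermal stability score (sum of log2 fold changes minus the abundance score) was transformed to a z-score; mean of n = 3 experiments.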

[2] = compound: O=[As]([O-])(O)O.[K+] [potassium arsenate]; test: as above; conditions: HeLa; arsenate concentration 1 mM
Procedure: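 Cellular thermal proteome profiling in HeLa cells treated with 1 mM arsenate for 1 h (DMSO pretreatment), heated to ten temperatures (37-66.3 °C). Soluble protein was quantified by TMT mass spectrometry relative to DMSO controls; the thermal stability score was transformed to a z-score; mean of n = 3 experiments.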

[3] = arsenate co-treatment: 1 mM arsenate 1 h
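Note: each temperature applied for 3 min, abundance score taken as mean log2 fold change at the two lowest temperatures, z-score obtained by mean subtraction and division by SD.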

Chain of UniProt Q6P1N9 (Q6P1N9 whole entry): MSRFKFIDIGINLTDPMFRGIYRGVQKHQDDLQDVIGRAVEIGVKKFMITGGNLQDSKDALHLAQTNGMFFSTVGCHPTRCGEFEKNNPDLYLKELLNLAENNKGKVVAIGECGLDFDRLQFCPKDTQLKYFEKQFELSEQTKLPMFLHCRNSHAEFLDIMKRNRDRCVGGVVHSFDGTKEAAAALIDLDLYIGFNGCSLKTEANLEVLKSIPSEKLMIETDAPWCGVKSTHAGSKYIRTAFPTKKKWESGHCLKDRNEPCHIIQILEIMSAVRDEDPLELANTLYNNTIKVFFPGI
Chain of UniProt Q99426 (Q99426 whole entry): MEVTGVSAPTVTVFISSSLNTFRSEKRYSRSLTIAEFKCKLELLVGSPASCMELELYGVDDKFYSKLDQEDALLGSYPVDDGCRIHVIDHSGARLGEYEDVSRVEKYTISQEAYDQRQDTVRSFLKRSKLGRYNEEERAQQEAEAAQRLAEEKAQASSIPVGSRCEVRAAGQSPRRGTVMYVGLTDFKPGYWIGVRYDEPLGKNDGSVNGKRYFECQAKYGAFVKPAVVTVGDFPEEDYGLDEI
Chain of UniProt Q9H2K8 (Q9H2K8 whole entry): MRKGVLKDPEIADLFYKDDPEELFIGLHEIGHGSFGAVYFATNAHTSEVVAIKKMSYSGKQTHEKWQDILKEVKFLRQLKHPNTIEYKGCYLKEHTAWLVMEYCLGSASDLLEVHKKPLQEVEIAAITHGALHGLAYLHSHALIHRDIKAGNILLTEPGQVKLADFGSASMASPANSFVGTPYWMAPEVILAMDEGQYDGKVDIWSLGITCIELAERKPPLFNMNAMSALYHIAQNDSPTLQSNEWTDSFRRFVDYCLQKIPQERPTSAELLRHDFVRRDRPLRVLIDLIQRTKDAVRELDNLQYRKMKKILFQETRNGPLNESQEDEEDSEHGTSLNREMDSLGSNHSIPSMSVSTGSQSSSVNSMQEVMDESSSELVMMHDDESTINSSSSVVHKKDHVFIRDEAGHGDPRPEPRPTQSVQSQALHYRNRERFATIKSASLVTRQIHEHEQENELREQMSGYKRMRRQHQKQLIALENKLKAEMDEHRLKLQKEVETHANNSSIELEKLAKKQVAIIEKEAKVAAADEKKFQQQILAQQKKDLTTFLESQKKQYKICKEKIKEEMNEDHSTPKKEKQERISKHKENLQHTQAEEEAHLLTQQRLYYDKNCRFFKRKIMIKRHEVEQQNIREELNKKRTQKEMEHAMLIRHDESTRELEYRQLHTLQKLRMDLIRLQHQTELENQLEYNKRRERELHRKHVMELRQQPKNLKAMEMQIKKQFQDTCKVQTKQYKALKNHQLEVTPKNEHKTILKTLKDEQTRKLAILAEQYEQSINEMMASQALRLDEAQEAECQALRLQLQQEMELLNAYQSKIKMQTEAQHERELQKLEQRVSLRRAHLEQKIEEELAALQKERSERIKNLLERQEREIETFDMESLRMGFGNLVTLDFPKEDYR
Chain of UniProt O14907 (O14907 whole entry): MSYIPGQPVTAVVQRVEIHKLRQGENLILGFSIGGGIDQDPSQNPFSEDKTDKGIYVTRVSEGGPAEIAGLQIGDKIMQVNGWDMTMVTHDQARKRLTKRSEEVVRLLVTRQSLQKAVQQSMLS
Chain of UniProt O75347 (O75347 whole entry): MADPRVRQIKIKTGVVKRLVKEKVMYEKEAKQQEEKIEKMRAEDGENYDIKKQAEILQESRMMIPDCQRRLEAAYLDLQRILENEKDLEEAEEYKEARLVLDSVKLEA
Chain of UniProt Q96BW9 (Q96BW9 whole entry): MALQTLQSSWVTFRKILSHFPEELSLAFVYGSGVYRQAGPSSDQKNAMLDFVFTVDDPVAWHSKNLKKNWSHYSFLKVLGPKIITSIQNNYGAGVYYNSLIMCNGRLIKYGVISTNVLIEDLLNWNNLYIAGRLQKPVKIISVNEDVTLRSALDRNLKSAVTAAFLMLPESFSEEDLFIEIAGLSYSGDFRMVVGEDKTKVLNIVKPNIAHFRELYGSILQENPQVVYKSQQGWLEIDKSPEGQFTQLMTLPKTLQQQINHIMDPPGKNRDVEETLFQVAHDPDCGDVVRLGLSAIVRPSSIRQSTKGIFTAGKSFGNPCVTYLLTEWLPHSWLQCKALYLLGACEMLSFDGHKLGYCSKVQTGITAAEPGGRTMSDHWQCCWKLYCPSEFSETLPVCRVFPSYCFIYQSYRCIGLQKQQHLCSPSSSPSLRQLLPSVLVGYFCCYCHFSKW
Chain of UniProt Q4KMP7 (Q4KMP7 whole entry): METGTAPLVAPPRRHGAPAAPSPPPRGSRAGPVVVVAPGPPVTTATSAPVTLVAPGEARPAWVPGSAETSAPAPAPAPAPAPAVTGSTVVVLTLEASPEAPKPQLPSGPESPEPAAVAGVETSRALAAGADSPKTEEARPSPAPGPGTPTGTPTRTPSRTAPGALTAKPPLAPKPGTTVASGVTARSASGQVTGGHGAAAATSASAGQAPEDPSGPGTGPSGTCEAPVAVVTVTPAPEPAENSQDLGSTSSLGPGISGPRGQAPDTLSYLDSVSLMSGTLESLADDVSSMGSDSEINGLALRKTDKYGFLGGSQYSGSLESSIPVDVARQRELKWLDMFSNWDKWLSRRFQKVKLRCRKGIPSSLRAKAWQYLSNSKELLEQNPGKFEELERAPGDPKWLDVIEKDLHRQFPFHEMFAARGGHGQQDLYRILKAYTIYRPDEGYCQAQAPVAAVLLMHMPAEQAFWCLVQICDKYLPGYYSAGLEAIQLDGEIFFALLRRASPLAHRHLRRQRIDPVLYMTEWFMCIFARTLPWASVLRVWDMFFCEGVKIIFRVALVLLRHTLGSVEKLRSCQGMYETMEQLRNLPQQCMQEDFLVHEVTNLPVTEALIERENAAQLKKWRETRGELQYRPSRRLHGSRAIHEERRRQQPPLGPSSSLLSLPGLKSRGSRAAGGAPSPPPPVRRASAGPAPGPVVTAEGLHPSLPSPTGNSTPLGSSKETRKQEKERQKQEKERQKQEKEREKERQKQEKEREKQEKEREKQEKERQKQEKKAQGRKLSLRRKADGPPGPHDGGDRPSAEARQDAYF
Chain of UniProt Q7L7X3 (Q7L7X3 whole entry): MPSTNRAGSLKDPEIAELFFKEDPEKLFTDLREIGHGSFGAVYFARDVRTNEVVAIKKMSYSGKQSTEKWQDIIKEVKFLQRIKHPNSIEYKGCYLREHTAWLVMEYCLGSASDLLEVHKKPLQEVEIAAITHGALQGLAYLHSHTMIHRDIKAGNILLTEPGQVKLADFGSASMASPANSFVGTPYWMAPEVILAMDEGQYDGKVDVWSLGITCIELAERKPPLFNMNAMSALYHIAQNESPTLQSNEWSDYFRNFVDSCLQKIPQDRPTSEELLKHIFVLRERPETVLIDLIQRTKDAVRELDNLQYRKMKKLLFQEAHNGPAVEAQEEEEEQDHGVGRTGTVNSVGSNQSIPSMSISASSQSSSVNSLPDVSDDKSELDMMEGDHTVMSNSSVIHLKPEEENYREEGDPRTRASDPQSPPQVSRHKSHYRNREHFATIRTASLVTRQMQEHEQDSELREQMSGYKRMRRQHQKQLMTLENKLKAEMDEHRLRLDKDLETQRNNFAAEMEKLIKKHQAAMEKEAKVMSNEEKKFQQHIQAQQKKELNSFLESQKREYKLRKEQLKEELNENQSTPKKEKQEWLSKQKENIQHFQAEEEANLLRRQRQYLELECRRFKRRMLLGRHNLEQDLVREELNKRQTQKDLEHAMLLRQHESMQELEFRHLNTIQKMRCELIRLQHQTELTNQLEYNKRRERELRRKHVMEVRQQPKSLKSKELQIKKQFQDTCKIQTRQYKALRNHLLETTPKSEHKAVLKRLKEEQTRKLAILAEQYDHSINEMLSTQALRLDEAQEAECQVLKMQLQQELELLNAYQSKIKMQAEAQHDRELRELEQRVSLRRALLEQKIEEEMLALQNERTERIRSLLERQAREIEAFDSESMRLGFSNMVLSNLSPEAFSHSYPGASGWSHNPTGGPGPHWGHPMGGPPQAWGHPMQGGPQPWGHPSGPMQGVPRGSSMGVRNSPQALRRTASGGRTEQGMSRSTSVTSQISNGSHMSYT
Chain of UniProt Q96QE5 (Q96QE5 whole entry): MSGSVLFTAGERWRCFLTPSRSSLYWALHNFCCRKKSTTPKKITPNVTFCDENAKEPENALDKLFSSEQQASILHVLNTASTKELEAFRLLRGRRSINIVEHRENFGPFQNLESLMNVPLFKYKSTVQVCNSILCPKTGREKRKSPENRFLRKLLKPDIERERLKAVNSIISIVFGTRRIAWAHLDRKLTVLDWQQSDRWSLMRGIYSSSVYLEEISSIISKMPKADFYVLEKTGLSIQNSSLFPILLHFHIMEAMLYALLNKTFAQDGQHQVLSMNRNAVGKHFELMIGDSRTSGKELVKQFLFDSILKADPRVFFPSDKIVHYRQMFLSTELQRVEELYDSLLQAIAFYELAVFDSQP
Chain of UniProt O95551 (O95551 whole entry): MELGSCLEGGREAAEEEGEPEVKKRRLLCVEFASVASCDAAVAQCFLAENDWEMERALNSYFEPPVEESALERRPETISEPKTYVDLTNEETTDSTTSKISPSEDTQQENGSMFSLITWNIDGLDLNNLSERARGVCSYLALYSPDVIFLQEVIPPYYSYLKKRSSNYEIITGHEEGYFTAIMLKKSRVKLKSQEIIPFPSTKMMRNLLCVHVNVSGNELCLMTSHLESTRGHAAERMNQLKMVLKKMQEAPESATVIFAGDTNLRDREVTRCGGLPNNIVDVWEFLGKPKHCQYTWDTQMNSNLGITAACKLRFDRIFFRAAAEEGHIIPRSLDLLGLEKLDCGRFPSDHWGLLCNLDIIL
Chain of UniProt Q01995 (Q01995 whole entry): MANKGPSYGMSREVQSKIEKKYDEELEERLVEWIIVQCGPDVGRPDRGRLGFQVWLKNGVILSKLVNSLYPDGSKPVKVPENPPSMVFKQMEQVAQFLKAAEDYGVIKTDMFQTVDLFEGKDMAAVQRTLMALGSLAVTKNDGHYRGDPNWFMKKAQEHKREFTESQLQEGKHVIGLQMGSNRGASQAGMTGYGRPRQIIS

| Target | thermal stability z-score [1, 3] | thermal stability z-score ([1]; arsenate co-treatment: none) | thermal stability z-score [2] |
| --- | --- | --- | --- |
| TAGLN2 (UniProt P37802) | 0.511 | 0.94 | -0.184 |
| TAGLN (UniProt Q01995) | -0.0305 | 1.13 | -1.55 |
| TALDO1 (UniProt P37837) | 0.471 | 0.557 | 0.839 |
| TAMM41 (UniProt Q96BW9) | -0.232 | 0.102 | 0.161 |
| TANC1 (UniProt Q9C0D5) | 0.142 | 1.34 | 1.14 |
| TANC2 (UniProt Q9HCD6) | -0.0889 | -0.116 | -0.0159 |
| TANGO6 (UniProt Q9C0B7) | -0.908 | -0.59 | 0.475 |
| TAOK1 (UniProt Q7L7X3) | -0.503 | -0.204 | -0.658 |
| TAOK2 (UniProt Q9UL54) | -0.161 | -0.0781 | -0.0359 |
| TAOK3 (UniProt Q9H2K8) | 0.238 | 0.142 | 0.0629 |
| TAP1 (UniProt Q03518) | -0.509 | -0.0614 | 1.47 |
| TAP2 (UniProt Q03519) | -0.828 | -0.526 | 0.366 |
| TAPBP (UniProt O15533) | -3.75 | -2.54 | 0.709 |
| TAPT1 (UniProt Q6NXT6) | 0.869 | 0.562 | -0.606 |
| TARBP1 (UniProt Q13395) | -0.285 | -0.136 | 0.121 |
| TARBP2 (UniProt Q15633) | 0.357 | 0.542 | -0.00318 |
| TARDBP (UniProt Q13148) | 0.125 | 0.504 | -0.755 |
| TARS2 (UniProt Q9BW92) | 0.183 | 0.625 | 0.922 |
| TARS (UniProt P26639) | 0.0423 | -0.0639 | 0.853 |
| TARSL2 (UniProt A2RTX5) | -0.396 | 0.561 | 0.0722 |
| TATDN1 (UniProt Q6P1N9) | 0.263 | 0.514 | 0.169 |
| TAX1BP1 (UniProt Q86VP1) | -0.152 | 0.411 | 0.997 |
| TAX1BP3 (UniProt O14907) | 0.0819 | -0.232 | 0.424 |
| TBC1D2 (UniProt Q9BYX2) | -0.151 | 0.0824 | 0.225 |

| Target | thermal stability z-score [1, 3] | thermal stability z-score ([1]; arsenate co-treatment: none) | thermal stability z-score [2] |
| --- | --- | --- | --- |
| TBC1D2B (UniProt Q9UPU7) | -0.169 | -0.202 | -0.23 |
| TBC1D4 (UniProt O60343) | -0.14 | 0.292 | 0.51 |
| TBC1D5 (UniProt Q92609) | -0.097 | -0.749 | -0.0438 |
| TBC1D9B (UniProt Q66K14) | -0.357 | -0.158 | -0.401 |
| TBC1D10A (UniProt Q9BXI6) | -0.00261 | -0.137 | 0.0768 |
| TBC1D10B (UniProt Q4KMP7) | -0.825 | -0.121 | -0.503 |
| TBC1D13 (UniProt Q9NVG8) | 0.33 | 0.109 | -0.494 |
| TBC1D15 (UniProt Q8TC07) | -0.559 | -0.646 | -0.276 |
| TBC1D17 (UniProt Q9HA65) | -0.114 | -0.107 | -0.0293 |
| TBC1D22A (UniProt Q8WUA7) | -1.16 | -0.15 | -1.19 |
| TBC1D23 (UniProt Q9NUY8) | -0.408 | -0.264 | 0.407 |
| TBC1D24 (UniProt Q9ULP9) | -0.346 | -0.491 | 0.0941 |
| TBCA (UniProt O75347) | 0.458 | 1.12 | 0.264 |
| TBCB (UniProt Q99426) | 0.475 | -0.253 | -1.55 |
| TBCC (UniProt Q15814) | -0.35 | -0.196 | -0.00724 |
| TBCD (UniProt Q9BTW9) | -0.558 | -0.301 | 0.705 |
| TBCE (UniProt Q15813) | -0.969 | -0.354 | -0.0811 |
| TBCEL (UniProt Q5QJ74) | -0.202 | -0.0108 | 0.0212 |
| TBCK (UniProt Q8TEA7) | 0.135 | 0.0192 | -0.192 |
| TBK1 (UniProt Q9UHD2) | -0.607 | -0.189 | -0.00763 |
| TBL1X (UniProt O60907) | 0.835 | -0.0254 | 0.341 |
| TBL1XR1 (UniProt Q9BZK7) | 1.11 | 0.307 | -0.746 |
| TBL2 (UniProt Q9Y4P3) | -0.257 | 0.0669 | 0.366 |
| TBL3 (UniProt Q12788) | 0.0946 | -0.105 | -0.338 |

| Target | thermal stability z-score [1, 3] | thermal stability z-score ([1]; arsenate co-treatment: none) | thermal stability z-score [2] |
| --- | --- | --- | --- |
| TBRG4 (UniProt Q969Z0) | -0.625 | -0.116 | 0.462 |
| TBX3 (UniProt O15119) | 0.163 | -0.0268 | 0.206 |
| TCAF1 (UniProt Q9Y4C2) | 0.246 | 0.355 | 0.396 |
| TCEA1 (UniProt P23193) | 0.138 | 0.297 | -0.117 |
| TCEAL1 (UniProt Q15170) | 0.347 | 0.809 | 0.192 |
| TCEAL4 (UniProt Q96EI5) | 0.347 | 0.201 | -0.306 |
| TCEB1 (UniProt Q15369) | -0.0847 | -0.122 | -0.0354 |
| TCEB2 (UniProt Q15370) | 0.764 | 0.455 | 0.154 |
| TCEB3 (UniProt Q14241) | -0.0069 | 0.00902 | 0.0043 |
| TCERG1 (UniProt O14776) | 0.7 | 0.361 | -0.0887 |
| TCF3 (UniProt P15923) | -0.098 | -0.0941 | -0.203 |
| TCF12 (UniProt Q99081) | -0.124 | -0.0813 | -0.203 |
| TCF25 (UniProt Q9BQ70) | -0.802 | -0.429 | -0.542 |
| TCOF1 (UniProt Q13428) | 0.957 | 0.648 | 0.157 |
| TCP1 (UniProt P17987) | -0.0358 | -0.0779 | -0.229 |
| TCP11L1 (UniProt Q9NUJ3) | -0.328 | 0.00441 | 0.586 |
| TDG (UniProt Q13569) | -0.0217 | -0.0438 | -0.322 |
| TDP1 (UniProt Q9NUW8) | 0.0423 | -0.0239 | -0.00328 |
| TDP2 (UniProt O95551) | 0.0323 | -0.0541 | 0.242 |
| TDRD3 (UniProt Q9H7E2) | -0.448 | 0.0394 | -0.796 |
| TEAD1 (UniProt P28347) | 0.133 | 0.196 | -0.00363 |
| TECR (UniProt Q9NZ01) | -1.46 | -0.891 | -0.077 |
| TEFM (UniProt Q96QE5) | 0.0966 | 0.0631 | 0.106 |
